# Results taken from ChEMBL document CHEMBL5030550, “A late-stage diversification via Heck-Matsuda arylation: Straightforward synthesis and cytotoxic/antiproliferative profiling of novel aryl-labdane-type derivatives” (Bioorg Med Chem Lett, 2021).
# How the values were obtained:
# THP-1 [1] = assay: Cytotoxicity against human THP-1 cells assessed as reduction in cell viability measured after 24 hrs by MTT assay; assay type: functional, cell-based; conditions: THP-1, 24 h
# THP-1 [2] = assay: Cytotoxicity against human THP-1 cells assessed as reduction in cell viability measured after 72 hrs by MTT assay; assay type: functional, cell-based; conditions: THP-1, 72 h
# K562 [3] = assay: Cytotoxicity against human K562 cells assessed as reduction in cell viability measured after 24 hrs by MTT assay; assay type: functional, cell-based; conditions: K562, 24 h
# K562 [4] = assay: Cytotoxicity against human K562 cells assessed as reduction in cell viability measured after 72 hrs by MTT assay; assay type: functional, cell-based; conditions: K562, 72 h
# MCF7 [5] = assay: Cytotoxicity against human MCF7 cells assessed as reduction in cell viability measured after 24 hrs by MTT assay; assay type: functional, cell-based; conditions: MCF7, 24 h
# MCF7 [6] = assay: Cytotoxicity against human MCF7 cells assessed as reduction in cell viability measured after 72 hrs by MTT assay; assay type: functional, cell-based; conditions: MCF7, 72 h
# HUVEC [7] = assay: Cytotoxicity against HUVEC assessed as reduction in cell viability measured after 24 hrs by MTT assay; assay type: cell-based; conditions: Homo sapiens
# HUVEC [8] = assay: Cytotoxicity against HUVEC assessed as reduction in cell viability measured after 72 hrs by MTT assay; assay type: cell-based; conditions: Homo sapiens
# K562 [9] = assay: Cell cycle arrest in human K562 cells assessed as accumulation at sub G1 phase at 25 uM measured after 24 hrs by propidium iodide staining based flow cytometry analysis (reference value: 6.5+/- 0.7%); assay type: functional
# K562 [10] = assay: Cell cycle arrest in human K562 cells assessed as accumulation at G1 phase at 25 uM measured after 24 hrs by propidium iodide staining based flow cytometry analysis (reference value: 43.5+/- 0.3%); assay type: functional
# K562 [11] = assay: Cell cycle arrest in human K562 cells assessed as accumulation at S phase at 25 uM measured after 24 hrs by propidium iodide staining based flow cytometry analysis (reference value: 22.8+/- 0.5%); assay type: functional
# K562 [12] = assay: Cell cycle arrest in human K562 cells assessed as accumulation at G2/M phase at 25 uM measured after 24 hrs by propidium iodide staining based flow cytometry analysis (reference value: 25.6+/- 0.7%); assay type: functional
# K562 [13] = assay: Cell cycle arrest in human K562 cells assessed as accumulation at sub G1 phase at 50 uM measured after 24 hrs by propidium iodide staining based flow cytometry analysis (reference value: 6.5+/- 0.7%); assay type: functional
# K562 [14] = assay: Cell cycle arrest in human K562 cells assessed as accumulation at G1 phase at 50 uM measured after 24 hrs by propidium iodide staining based flow cytometry analysis (reference value: 43.5+/- 0.3%); assay type: functional
# K562 [15] = assay: Cell cycle arrest in human K562 cells assessed as accumulation at S phase at 50 uM measured after 24 hrs by propidium iodide staining based flow cytometry analysis (reference value: 22.8+/- 0.5%); assay type: functional
# K562 [16] = assay: Cell cycle arrest in human K562 cells assessed as accumulation at G2/M phase at 50 uM measured after 24 hrs by propidium iodide staining based flow cytometry analysis (reference value: 25.6+/- 0.7%); assay type: functional
# K562 [17] = assay: Cell cycle arrest in human K562 cells assessed as accumulation at sub G1 phase at 100 uM measured after 24 hrs by propidium iodide staining based flow cytometry analysis (reference value: 6.5+/- 0.7%); assay type: functional
# K562 [18] = assay: Cell cycle arrest in human K562 cells assessed as accumulation at G1 phase at 100 uM measured after 24 hrs by propidium iodide staining based flow cytometry analysis (reference value: 43.5+/- 0.3%); assay type: functional
# K562 [19] = assay: Cell cycle arrest in human K562 cells assessed as accumulation at S phase at 100 uM measured after 24 hrs by propidium iodide staining based flow cytometry analysis (reference value: 22.8+/- 0.5%); assay type: functional
# K562 [20] = assay: Cell cycle arrest in human K562 cells assessed as accumulation at G2/M phase at 100 uM measured after 24 hrs by propidium iodide staining based flow cytometry analysis (reference value: 25.6+/- 0.7%); assay type: functional
# K562 [21] = assay: Induction of ROS production in human K562 cells at 100 uM incubated for 24 hrs relative to control; assay type: functional
# K562 [22] = assay: Induction of apoptosis in human K562 cells at 25 uM after 24 hrs by PI staining based flow cytometric analysis (reference value: 0.1+/- 0.05%); assay type: functional
# K562 [23] = assay: Induction of apoptosis in human K562 cells at 50 uM after 24 hrs by PI staining based flow cytometric analysis (reference value: 0.1+/- 0.05%); assay type: functional
# K562 [24] = assay: Induction of apoptosis in human K562 cells at 100 uM after 24 hrs by PI staining based flow cytometric analysis (reference value: 0.1+/- 0.05%); assay type: functional
# K562 [25] = assay: Induction of autophagy in human K562 cells at 25 uM after 24 hrs (reference value: 3.9+/- 1.1%); assay type: functional
# K562 [26] = assay: Induction of autophagy in human K562 cells at 50 uM after 24 hrs (reference value: 3.9+/- 1.1%); assay type: functional
# K562 [27] = assay: Induction of autophagy in human K562 cells at 100 uM after 24 hrs (reference value: 3.9+/- 1.1%); assay type: functional
structure (smiles),measurement,setting,value
Cc1ccc(/C=C2\CC[C@H]3C(C)(C)CCC[C@]3(C)[C@H]2CCC(C)CC(=O)O)cc1 (some centres not stated),IC50,THP-1 [1],> 200 µM
same,IC50,THP-1 [2],91 µM
same,IC50,K562 [3],> 200 µM
same,IC50,K562 [4],> 200 µM
same,IC50,MCF7 [5],> 200 µM
same,IC50,MCF7 [6],> 200 µM
same,IC50,HUVEC [7],> 200 µM
same,IC50,HUVEC [8],> 200 µM
COc1ccc(/C=C2\CC[C@H]3C(C)(C)CCC[C@]3(C)[C@H]2CCC(C)CC(=O)O)cc1OC (some centres not stated),IC50,THP-1 [1],178 µM
same,IC50,THP-1 [2],106 µM
same,IC50,K562 [3],> 200 µM
same,IC50,K562 [4],> 200 µM
same,IC50,MCF7 [5],> 200 µM
same,IC50,MCF7 [6],> 200 µM
same,IC50,HUVEC [7],> 200 µM
same,IC50,HUVEC [8],> 200 µM
CC(CC[C@H]1/C(=C/c2ccc(Cl)cc2)CC[C@H]2C(C)(C)CCC[C@]12C)CC(=O)O (some centres not stated),IC50,THP-1 [1],> 200 µM
same,IC50,THP-1 [2],> 200 µM
same,IC50,K562 [3],> 200 µM
same,IC50,K562 [4],> 200 µM
same,IC50,HUVEC [7],> 200 µM
same,IC50,HUVEC [8],> 200 µM
COc1ccc(/C=C2\CC[C@H]3C(C)(C)CCC[C@]3(C)[C@H]2CCC(C)CC(=O)O)cc1 (some centres not stated),IC50,THP-1 [1],> 200 µM
same,IC50,THP-1 [2],> 200 µM
same,IC50,K562 [3],> 200 µM
same,IC50,K562 [4],> 200 µM
same,IC50,HUVEC [7],> 200 µM
same,IC50,HUVEC [8],> 200 µM
CC(CC[C@H]1/C(=C/c2ccc(Br)cc2)CC[C@H]2C(C)(C)CCC[C@]12C)CC(=O)O (some centres not stated),IC50,THP-1 [1],> 200 µM
same,IC50,THP-1 [2],> 200 µM
same,IC50,K562 [3],> 200 µM
same,IC50,K562 [4],> 200 µM
same,IC50,HUVEC [7],> 200 µM
same,IC50,HUVEC [8],> 200 µM
CC(CC[C@H]1/C(=C/c2ccc(F)cc2)CC[C@H]2C(C)(C)CCC[C@]12C)CC(=O)O (some centres not stated),IC50,THP-1 [1],> 200 µM
same,IC50,THP-1 [2],> 200 µM
same,IC50,K562 [3],> 200 µM
same,IC50,K562 [4],> 200 µM
same,IC50,HUVEC [7],> 200 µM
same,IC50,HUVEC [8],> 200 µM
CC(CC[C@H]1/C(=C/c2ccc(I)cc2)CC[C@H]2C(C)(C)CCC[C@]12C)CC(=O)O (some centres not stated),IC50,THP-1 [1],68 µM
same,IC50,THP-1 [2],33 µM
same,IC50,K562 [3],98 µM
same,IC50,K562 [4],55 µM
same,IC50,MCF7 [5],89 µM
same,IC50,MCF7 [6],50 µM
same,IC50,HUVEC [7],194 µM
same,IC50,HUVEC [8],100 µM
same,Activity,K562 [9],7.2%
same,Activity,K562 [10],44.5%
same,Activity,K562 [11],24.4%
same,Activity,K562 [12],24.1%
same,Activity,K562 [13],8.5%
same,Activity,K562 [14],43.3%
same,Activity,K562 [15],23.2%
same,Activity,K562 [16],21.9%
same,Activity,K562 [17],35.8%
same,Activity,K562 [18],27.5%
same,Activity,K562 [19],18.2%
same,Activity,K562 [20],17.1%
same,Activity,K562 [21],17.7%
same,Activity,K562 [22],2.4%
same,Activity,K562 [23],0.4%
same,Activity,K562 [24],1.1%
same,Activity,K562 [25],7.3%
same,Activity,K562 [26],14.6%
same,Activity,K562 [27],25.2%
C=C1CC[C@H]2C(C)(C)CCC[C@]2(C)[C@H]1CCC(C)CC(=O)O (some centres not stated),IC50,THP-1 [1],> 200 µM
same,IC50,THP-1 [2],132 µM
same,IC50,K562 [3],> 200 µM
same,IC50,K562 [4],> 200 µM
same,IC50,MCF7 [5],> 200 µM
same,IC50,MCF7 [6],> 200 µM
same,IC50,HUVEC [7],> 200 µM
same,IC50,HUVEC [8],168 µM
C=C1CC[C@H]2C(C)(C)CCC[C@]2(C)[C@H]1CCC(C)CC(=O)OC (some centres not stated),IC50,THP-1 [1],> 200 µM
same,IC50,THP-1 [2],> 200 µM
same,IC50,K562 [3],> 200 µM
same,IC50,K562 [4],> 200 µM
same,IC50,MCF7 [5],> 200 µM
same,IC50,MCF7 [6],> 200 µM
same,IC50,HUVEC [7],> 200 µM
same,IC50,HUVEC [8],> 200 µM
CC(CC[C@H]1/C(=C/c2ccc([N+](=O)[O-])cc2)CC[C@H]2C(C)(C)CCC[C@]12C)CC(=O)O (some centres not stated),IC50,THP-1 [1],180 µM
same,IC50,THP-1 [2],68 µM
same,IC50,K562 [3],> 200 µM
same,IC50,K562 [4],169 µM
same,IC50,MCF7 [5],> 200 µM
same,IC50,MCF7 [6],124 µM
same,IC50,HUVEC [7],> 200 µM
same,IC50,HUVEC [8],194 µM
COc1cc([C@@H]2c3cc4c(cc3[C@@H](O[C@@H]3O[C@@H]5CO[C@@H](C)O[C@H]5[C@H](O)[C@H]3O)[C@H]3COC(=O)[C@H]23)OCO4)cc(OC)c1O [ETOPOSIDE],IC50,THP-1 [1],59 µM
same,IC50,THP-1 [2],< 6.25 µM
same,IC50,K562 [3],> 200 µM
same,IC50,K562 [4],66 µM
same,IC50,MCF7 [5],> 100 µM
same,IC50,MCF7 [6],50 µM
same,IC50,HUVEC [7],> 200 µM
same,IC50,HUVEC [8],29 µM
same,Activity,K562 [17],13%
same,Activity,K562 [18],20.6%
same,Activity,K562 [19],26%
same,Activity,K562 [20],30.4%
O=c1[nH]cc(F)c(=O)[nH]1 [FLUOROURACIL],IC50,MCF7 [5],> 200 µM
same,IC50,MCF7 [6],166 µM
same,IC50,HUVEC [7],> 200 µM
same,IC50,HUVEC [8],96 µM
